# In patent US6376169B1, “Method for diagnosing a vascular condition” (Queens University at Kingston, priority 1998, dated 2002):
# “Also recorded” adds a separate entry of the source.
# Legend:
# Format in all cases: cell-based, human
# [1] = system: RTP/Drg1 protein; experiment: Western blot of RTP/Drg1 protein in MDA-MB-231 cells; conditions: for levels of RTP/Drg1 protein: 20% oxygen, up to 72 h, 100 μM cobalt chloride, 30 mM Tiron or 100 μM DFO; for reduction in RTP/Drg1 protein levels (hypoxic up-regulation), densitometry: 1% oxygen + 30% CO, 24 h; for effect of CO on up-regulation of RTP/Drg1 protein induced by cobalt chloride, Tiron and DFO: hypoxic conditions with CO
# Procedure: To determine whether hypoxia regulates the expression of certain genes (e.g., PAI-1, uPAR, RTP/Drg1) via an iron-containing heme protein, cells were cultured for up to 72 h at 20% oxygen in the presence or absence of either 100 μM cobalt chloride, or 30 mM sodium 4,5-dihydroxybenzene-1,3-disulfonate (Tiron), or 100 μM desferrioxamine mesylate (DFO) (Sigma Chemical CO., St. Louis, Mo.). Further confirmation of the role of a heme protein in hypoxic responses can be achieved by culturing cells under hypoxia in the presence of carbon monoxide, which maintains the heme protein in the oxy state and thereby blocks heme protein-mediated hypoxic responses. Thus, cells were also cultured for 24 h at 37° C. under hypoxic conditions in the presence of 30% carbon monoxide.
# Western Blot Analysis. To examine levels of RTP/Drg1 protein, cells were lysed with buffer containing 40 mM HEPES pH 7.2, 100 mM NaCl, 20% glycerol, 0.1 mM EDTA pH 8.0, 0.2% Triton X-100 (polyoxyethylene (10) isooctylphenyl ether), 1 mM DTT, and 2 mM PMSF, and centrifuged briefly at 4° C. The supernatants were collected and stored at −80° C. until use. SDS-PAGE was performed and resolved proteins were transferred to Immobilon-P membranes (Millipore Corp., Bedford, Mass.) using a semi-dry transfer cell (Bio-Rad Laboratories, Mississauga, ON). Membranes were blocked by incubation overnight at 4° C. in a PBS-buffered solution containing 0.01% Tween 20 (polyoxyethylene(20) sorbitan monolaurate) (PBS-T) and 5% casein. The blots were then incubated with polyclonal rabbit anti-Drg1 antiserum followed by incubation with a peroxidase labeled goat anti-rabbit IgG secondary antibody (Vector Lab. Inc., Burlingame, Calif.). Antigen was detected by enhanced chemiluminescence (ECL, Amersham Canada Inc., Oakville, ON) and exposure of the membrane onto Dupont Reflection NEF film (Dupont Canada, Inc., Mississauga ON).
# [2] = system: uPAR; experiment: Binding of [125I]-prourokinase to HTR-8/SVneo cells (uPAR expression); conditions: for Kd: Kd of [125I]-prourokinase on cells cultured with compound, read-out: Kd (nM) ± SEM; for increase in the expression of uPAR: flow cytometric and radioligand binding studies; for Bmax (sites/cell) ± SEM: [125I]-prourokinase binding to cells cultured with compound
# Procedure: Determination of uPAR expression by urokinase binding analysis. Measurement of uPAR expression by ligand binding analysis was performed using [^125I]-prourokinase as the ligand, as described (Zini J M, et al., Blood 79:2917 (1992)). Prourokinase was radiolabeled with ^125I, using Iodobeads, to a specific radioactivity of at least 10^6 cpm/μg. Cells were then chilled to 4° C., washed with cold PBS containing 1% BSA, and incubated for 2 h with increasing concentrations of[^125I]-prourokinase in the absence (to determine total binding) or presence (to determine non-specific binding) of a 100-fold molar excess of unlabeled prourokinase. Specific binding was defined as the difference between total and non-specific binding, and analyzed by non-linear curve fitting methods (least squares method) using the Kaliedograph software program (Synergy Software, Reading, Pa.).
# [3] = system: HTR-8/SVneo cells; experiment: In vitro invasion of HTR-8/SVneo cells through Matrigel; conditions: for increase in invasion: 20% oxygen, 100 μM cobalt chloride or 30 mM Tiron; for Invasion Index (%) ± SE: standard = 100
# Procedure: In vitro invasion assay. An assay which employs reconstituted basement membrane (Matrigel; Collaborative Biomedical Products, Bedford, Mass.) as the substrate for invasion was used to determine the effect of hypoxia on the invasiveness of tumor cells. Costar Transwell inserts (6.5 mm diameter polycarbonate membrane, 8 μm pore; Corning Costar Corp., Cambridge, Mass.) were coated with 100 μl of a 1 mg/ml solution of Matrigel diluted in cold serum-free culture medium, placed in the wells of a 24-well tissue culture plate and allowed to air-dry for 12 h in a laminar flow cabinet. After reconstituting the Matrigel by incubating for 1 h with 100 μl of serum-free medium, 5.0×10^4 cells in 100 μl aliquots of serum-containing medium were added to the Transwells. […] Cells which invaded through the Matrigel and the pores of the underlying membrane were fixed for 10 min in Carnoy's fixative (25% acetic acid, 75% methanol) and stained for 3 h in 1% toluidine blue, 1% sodium borate. Following several washes in tap water, the membranes were removed with a small scalpel blade, placed on a microscope slide and coverslipped. The invasion index' was then determined by counting, under a microscope, the total number of stained cells in the underside of the polycarbonate membranes.
# Alternatively, cells (e.g., HTR-8/SVneo, MDA-MB-231) were labeled by incubation for 24 h in the presence of 10 μCi/ml [^3H]-thymidine. The cells were then harvested, adjusted to a concentration of 5.0×10^5/ml, and 100 μl aliquots added in triplicate to the upper wells of the invasion chambers. After a 24-h incubation, cells in the upper and lower compartments of the chambers were harvested. The invasion index, reflecting the percentage of added cells which had invaded the Matrigel was determined by measurement of the radioactivity in the upper and lower compartments, as well as in the membrane.
# [4] = system: cell-associated uPA; experiment: Zymography of cell-associated plasminogen activators in MDA-MB-231 cell extracts
# Procedure: To assess the levels of plasminogen activators associated with cells cultured for 24 h under 20% and 1% O2, extracts were prepared by disrupting trypsinized cell pellets with 2% SDS in Tris-buffered saline (TBS; 10 mM Tris, 0.15 M NaCl, pH 7.5) using a Polytron homogenizer (Brinkmann Instruments, Rexdale, ON, Canada). The homogenates were centrifuged at 15,000 g for 15 min to remove insoluble materials and 100 μg of extracted protein were analyzed by casein-plasminogen gel zymography as described above.
structure (smiles),measurement,setting,value
"O=S(=O)([O-])c1cc(O)c(O)c(S(=O)(=O)[O-])c1.[Na+].[Na+] [Tiron, sodium 4,5-dihydroxybenzene-1,3-disulfonate]",levels of RTP/Drg1 protein,[1],time-dependent increases in RTP/Drg1 protein
same,Kd,[2],8.08 ± 1.11 nM
same,increase in the expression of uPAR,[2]; Tiron,3 fold
same,Bmax (sites/cell) ± SEM,[2],"623,213 ± 102,360 sites/cell"
same,increase in invasion,[3],29.3±12.7%
same,Invasion Index (%) ± SE,[3]; Standard (20% O2) + compound,129.3 ± 12.7%
[C-]#[O+] [carbon monoxide],"reduction in RTP/Drg1 protein levels (hypoxic up-regulation), densitometry",[1],abrogated
same,"reduction in RTP/Drg1 protein levels (hypoxic up-regulation), densitometry",[1]; listed as CO,57%
same,"effect of CO on up-regulation of RTP/Drg1 protein induced by cobalt chloride, Tiron and DFO",[1],did not inhibit
same,"effect of CO on up-regulation of RTP/Drg1 protein induced by cobalt chloride, Tiron and DFO",[1]; listed as CO,unable to inhibit
same,inhibition of hypoxia-stimulated invasion,[3]; 1% oxygen + 20% carbon monoxide,87%
same,Invasion Index (%) ± SE,[3]; Hypoxia (1% O2) + 20% CO,104.0 ± 8.5%
same,effect on hypoxic increase in cell-associated uPA,"[4]; 1% O2 + 30% CO, listed as CO",abrogated the hypoxic increase in cell-associated uPA; also recorded: prevented the effect of hypoxia on cell-associated uPA increases
[Cl][Co][Cl] [cobalt chloride],levels of RTP/Drg1 protein,[1],time-dependent increases in RTP/Drg1 protein
same,Kd,[2],3.58 ± 0.69 nM
same,Bmax (sites/cell) ± SEM,[2],"285,711 ± 38,324 sites/cell"
same,increase in the expression of uPAR,[2]; cobalt chloride,28%
same,increase in invasion,[3],24.6±8.4%
same,Invasion Index (%) ± SE,[3]; Standard (20% O2) + compound,124.6 ± 8.4%
same,cell-associated uPA levels,[4]; culture with cobalt chloride,increased cell-associated uPA
